{
  "source": "patent US20050191308A1",
  "about": "(priority 1999, published 2005)",
  "test_system": "M. tuberculosis (Erdman)",
  "conditions": "in vivo",
  "data": [
    {"smiles": "CCCCCCCCCCCCCCCCCC[N+](C)(C)CCCCCCCCCCCCCCCCCC.[Br-]", "note": "[DDA]", "values": [
      {"measurement": "Log10 resistance, Lung, Experiment I", "value": "<0.05", "unit": "log10"},
      {"measurement": "Log10 resistance, Spleen, Experiment I", "value": "<0.05", "unit": "log10"}
    ]}
  ]
}
